These compounds were tested against T1, BRD4(BD1) (Homo sapiens, UniProt O60885) (assay: In Vitro Bromodomain Inhibition Assay (AlphaLISA, H4-tetraacetyl peptide)). Settings: His-tagged BRD4(BD1) 200 nM, biotinylated H4-tetraacetyl peptide 200 nM, room temperature.
T1 construct: purchased BPS Bioscience
Format: binding
Procedure: To measure activity of bromodomain inhibitors, a His-epitope tagged BRD4 BD149-170 was purchased from BPS Bioscience. BRD4 binding and inhibition was assessed by monitoring the engagement of biotinylated H4-tetraacetyl peptide (H4K5/8/12/16; AnaSpec #64989-025) with the target using the AlphaLISA technology (Perkin-Elmer). Specifically, in a 384 well OptiPlate, BRD4(BD1) (200 nM final) was pre-incubated with either DMSO (final 1.0% DMSO) or a compound dilution series in DMSO. All reagents were diluted in assay buffer containing 50 mM HEPES (pH 7.4), 100 mM NaCl, 0.1% (w/v) BSA, and 0.05% (w/v) CHAPS. After a 30 minute incubation at room temperature, H4 peptide was added (200 nM final) and the reaction was incubated an additional 30 minutes at room temperature. Alpha. streptavidin donor beads and AlphaLISA nickel chelate acceptor beads were then added to a final concentration of 10 ug/mL each. After one hour, equilibration plates were read on an Envision instrument and IC50s calculated using a four parameter non-linear curve fit.

IC50, < 1 µM:
COc1cc2c(cc1-c1c(C)noc1C)ncc1oc(=O)n(Cc3ccc(OC(F)(F)F)cc3)c12 [Example 54, 7-(3,5-Dimethylisoxazol-4-yl)-8-methoxy-1-[[4-(trifluoromethoxy)phenyl]methyl]oxazolo[5,4-c]quinolin-2-one]
COc1cc2c(cc1-c1c(C)noc1C)ncc1oc(=O)n([C@H](C)c3cccc(Cl)c3)c12 [Example 45, 1-[(1R)-1-(3-Chlorophenyl)ethyl]-7-(3,5-dimethylisoxazol-4-yl)-8-methoxy-oxazolo[5,4-c]quinolin-2-one]
COc1cc2c(cc1-c1c(C)noc1C)nc(CN(C)C)c1oc(=O)n([C@H](C)c3ccccc3)c12 [Example 42, 4-(Dimethylaminomethyl)-7-(3,5-dimethylisoxazol-4-yl)-8-methoxy-1-[(1R)-1-phenylethyl]oxazolo[5,4-c]quinolin-2-one]
COc1cc2c(cc1-c1c(C)noc1C)ncc1oc(=O)n(Cc3ccc(C)cc3)c12 [Example 46, 7-(3,5-Dimethylisoxazol-4-yl)-8-methoxy-1-(p-tolylmethyl)oxazolo[5,4-c]quinolin-2-one]
CCOC(=O)c1nc2cc(-c3c(C)noc3C)c(OC)cc2c2c1oc(=O)n2[C@H](C)c1ccccc1 [Example 34, Ethyl 7-(3,5-Dimethylisoxazol-4-yl)-8-methoxy-2-oxo-1-[(1R)-1-phenylethyl]oxazolo[5,4-c]quinoline-4-carboxylate]
COc1cc2c(cc1-c1c(C)noc1C)nc(C)c1oc(=O)n([C@H](C)c3ccccc3)c12 [Example 36, 7-(3,5-Dimethylisoxazol-4-yl)-8-methoxy-4-methyl-1-[(1R)-1-phenylethyl]oxazolo[5,4-c]quinolin-2-one]
COc1cc2c(cc1-c1c(C)noc1C)ncc1oc(=O)n(Cc3ccccc3)c12 [Example 2, 1-Benzyl-7-(3,5-dimethylisoxazol-4-yl)-8-methoxy-oxazolo[5,4-c]quinolin-2-one]
COc1cc2c(cc1-c1c(C)noc1C)nc(CN1CCOCC1)c1oc(=O)n(Cc3ccccc3)c12 [Example 41, 1-Benzyl-7-(3,5-dimethylisoxazol-4-yl)-8-methoxy-4-(morpholinomethyl)oxazolo[5,4-c]quinolin-2-one]
COc1cc2c(cc1-c1c(C)noc1C)nc(CO)c1oc(=O)n([C@H](C)c3ccccc3)c12 [Example 35, 7-(3,5-Dimethylisoxazol-4-yl)-4-(hydroxymethyl)-8-methoxy-1-[(1R)-1-phenylethyl]oxazolo[5,4-c]quinolin-2-one]
CCNCc1nc2cc(-c3c(C)noc3C)c(OC)cc2c2c1oc(=O)n2Cc1ccccc1 [Example 52, 1-Benzyl-7-(3,5-dimethylisoxazol-4-yl)-4-(ethylaminomethyl)-8-methoxy-oxazolo[5,4-c]quinolin-2-one]
COc1cc2c(cc1-c1c(C)noc1C)nc(CN(C)C)c1oc(=O)n(Cc3ccccc3)c12 [Example 47, 1-Benzyl-4-(dimethylaminomethyl)-7-(3,5-dimethylisoxazol-4-yl)-8-methoxy-oxazolo[5,4-c]quinolin-2-one]
COc1cc2c(cc1-c1c(C)noc1C)ncc1oc(=O)n([C@H](C)c3ccc(Cl)cc3)c12 [Example 40, 1-[(1R)-1-(4-Chlorophenyl)ethyl]-7-(3,5-dimethylisoxazol-4-yl)-8-methoxy-oxazolo[5,4-c]quinolin-2-one]
COc1cc2c(cc1-c1c(C)noc1C)ncc1oc(=O)n(Cc3ccccc3S(C)(=O)=O)c12 [Example 49, 7-(3,5-Dimethylisoxazol-4-yl)-8-methoxy-1-[(2-methylsulfonylphenyl)methyl]oxazolo[5,4-c]quinolin-2-one]
COc1cc2c(cc1-c1c(C)noc1C)ncc1oc(=O)n([C@H](C)c3ccc(C#N)cc3)c12 [Example 43, 4-[(1R)-1-[7-(3,5-Dimethylisoxazol-4-yl)-8-methoxy-2-oxo-oxazolo[5,4-c]quinolin-1-yl]ethyl]benzonitrile]
COc1cc2c(cc1-c1c(C)noc1C)ncc1oc(=O)n(Cc3c(C)cccc3F)c12 [Example 37, 7-(3,5-Dimethylisoxazol-4-yl)-1-[(2-fluoro-6-methyl-phenyl)methyl]-8-methoxy-oxazolo[5,4-c]quinolin-2-one]
COc1cc2c(cc1-c1c(C)noc1C)ncc1oc(=O)n([C@H](C)c3ccccn3)c12 [Example 3, 7-(3,5-Dimethylisoxazol-4-yl)-8-methoxy-1-[(1R)-1-(2-pyridyl)ethyl]oxazolo[5,4-c]quinolin-2-one]
COc1cc2c(cc1-c1c(C)noc1C)ncc1oc(=O)n(Cc3ccccc3Cl)c12 [Example 18, 1-[(2-Chlorophenyl)methyl]-7-(3,5-dimethylisoxazol-4-yl)-8-methoxy-oxazolo[5,4-c]quinolin-2-one]
CCN(Cc1nc2cc(-c3c(C)noc3C)c(OC)cc2c2c1oc(=O)n2Cc1ccccc1)C(C)=O [Example 48, N-[[1-Benzyl-7-(3,5-dimethylisoxazol-4-yl)-8-methoxy-2-oxo-oxazolo[5,4-c]quinolin-4-yl]methyl]-N-ethyl-acetamide]
COc1cc2c(cc1-c1c(C)noc1C)ncc1oc(=O)n([C@H](C)c3cccc(C#N)c3)c12 [Example 44, 3-[(1R)-1-[7-(3,5-Dimethylisoxazol-4-yl)-8-methoxy-2-oxo-oxazolo[5,4-c]quinolin-1-yl]ethyl]benzonitrile]
CC[C@H](c1ccccc1)n1c(=O)oc2cnc3cc(-c4c(C)noc4C)c(OC)cc3c21 [Example 39, 7-(3,5-Dimethylisoxazol-4-yl)-8-methoxy-1-[(1R)-1-phenylpropyl]oxazolo[5,4-c]quinolin-2-one]
COc1cc2c(cc1-c1c(C)noc1C)nc(C(=O)O)c1oc(=O)n([C@H](C)c3ccccc3)c12 [Example 51, 7-(3,5-Dimethylisoxazol-4-yl)-8-methoxy-2-oxo-1-[(1R)-1-phenylethyl]oxazolo[5,4-c]quinoline-4-carboxylic acid]
COc1cc2c(cc1-c1c(C)noc1C)ncc1oc(=O)n(Cc3ccccc3C#N)c12 [Example 50, 2-[[7-(3,5-Dimethylisoxazol-4-yl)-8-methoxy-2-oxo-oxazolo[5,4-c]quinolin-1-yl]methyl]benzonitrile]
COc1cc2c(cc1-c1c(C)noc1C)nc(CO)c1oc(=O)n(Cc3ccccc3)c12 [Example 33, 1-Benzyl-7-(3,5-dimethylisoxazol-4-yl)-4-(hydroxymethyl)-8-methoxy-oxazolo[5,4-c]quinolin-2-one]
COc1cc2c(cc1-c1c(C)noc1C)ncc1oc(=O)n([C@H](C)c3ccccc3)c12 [Example 12A, 7-(3,5-Dimethylisoxazol-4-yl)-8-methoxy-1-[(1R)-1-phenylethyl]oxazolo[5,4-c]quinolin-2-one]
CCOC(=O)c1nc2cc(-c3c(C)noc3C)c(OC)cc2c2c1oc(=O)n2Cc1ccccc1 [Example 1, Ethyl 1-benzyl-7-(3,5-dimethylisoxazol-4-yl)-8-methoxy-2-oxo-oxazolo[5,4-c]quinoline-4-carboxylate]
COCc1nc2cc(-c3c(C)noc3C)c(OC)cc2c2c1oc(=O)n2[C@H](C)c1ccccc1 [Example 38, 7-(3,5-Dimethylisoxazol-4-yl)-8-methoxy-4-(methoxymethyl)-1-[(1R)-1-phenylethyl]oxazolo[5,4-c]quinolin-2-one]
